Measured values: ChEMBL document CHEMBL3988442, “University of Dundee, Small-Polar-MMV Screening Library” (2021)
Where “and” joins values, the source holds several entries; their conditions need not be identical. Equal values may be shown once.

Columns and labels:
[1] = target: T1, Histidine--tRNA ligase (Trypanosoma cruzi (strain CL Brener), UniProt Q4DA54); assay: Trypanosoma cruzi histidyl tRNA synthetase (Tc-HisRS); assay type: functional
T1 sequence (Q4DA54 whole entry): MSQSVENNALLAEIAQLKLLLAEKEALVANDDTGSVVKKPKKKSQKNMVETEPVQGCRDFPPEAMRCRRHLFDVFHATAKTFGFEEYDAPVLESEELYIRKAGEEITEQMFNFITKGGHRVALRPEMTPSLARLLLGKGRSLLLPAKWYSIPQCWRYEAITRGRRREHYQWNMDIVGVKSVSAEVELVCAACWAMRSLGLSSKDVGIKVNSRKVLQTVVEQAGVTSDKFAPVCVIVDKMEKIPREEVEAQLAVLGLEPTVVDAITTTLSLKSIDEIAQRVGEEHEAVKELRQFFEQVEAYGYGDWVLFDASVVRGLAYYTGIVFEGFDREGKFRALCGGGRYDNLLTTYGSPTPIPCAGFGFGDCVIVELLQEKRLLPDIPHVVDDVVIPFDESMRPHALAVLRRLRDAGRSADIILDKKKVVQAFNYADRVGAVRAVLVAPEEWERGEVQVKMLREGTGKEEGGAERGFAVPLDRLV

[2] = target: Chromo domain-containing protein 1 (Saccharomyces cerevisiae (strain ATCC 204508 / S288c) (Baker's yeast), UniProt P32657); assay: ScCHD-1 Enzyme Inhibition Assay; assay type: functional
Chain of Chromo domain-containing protein 1 (P32657 whole entry, the tested form may be a part): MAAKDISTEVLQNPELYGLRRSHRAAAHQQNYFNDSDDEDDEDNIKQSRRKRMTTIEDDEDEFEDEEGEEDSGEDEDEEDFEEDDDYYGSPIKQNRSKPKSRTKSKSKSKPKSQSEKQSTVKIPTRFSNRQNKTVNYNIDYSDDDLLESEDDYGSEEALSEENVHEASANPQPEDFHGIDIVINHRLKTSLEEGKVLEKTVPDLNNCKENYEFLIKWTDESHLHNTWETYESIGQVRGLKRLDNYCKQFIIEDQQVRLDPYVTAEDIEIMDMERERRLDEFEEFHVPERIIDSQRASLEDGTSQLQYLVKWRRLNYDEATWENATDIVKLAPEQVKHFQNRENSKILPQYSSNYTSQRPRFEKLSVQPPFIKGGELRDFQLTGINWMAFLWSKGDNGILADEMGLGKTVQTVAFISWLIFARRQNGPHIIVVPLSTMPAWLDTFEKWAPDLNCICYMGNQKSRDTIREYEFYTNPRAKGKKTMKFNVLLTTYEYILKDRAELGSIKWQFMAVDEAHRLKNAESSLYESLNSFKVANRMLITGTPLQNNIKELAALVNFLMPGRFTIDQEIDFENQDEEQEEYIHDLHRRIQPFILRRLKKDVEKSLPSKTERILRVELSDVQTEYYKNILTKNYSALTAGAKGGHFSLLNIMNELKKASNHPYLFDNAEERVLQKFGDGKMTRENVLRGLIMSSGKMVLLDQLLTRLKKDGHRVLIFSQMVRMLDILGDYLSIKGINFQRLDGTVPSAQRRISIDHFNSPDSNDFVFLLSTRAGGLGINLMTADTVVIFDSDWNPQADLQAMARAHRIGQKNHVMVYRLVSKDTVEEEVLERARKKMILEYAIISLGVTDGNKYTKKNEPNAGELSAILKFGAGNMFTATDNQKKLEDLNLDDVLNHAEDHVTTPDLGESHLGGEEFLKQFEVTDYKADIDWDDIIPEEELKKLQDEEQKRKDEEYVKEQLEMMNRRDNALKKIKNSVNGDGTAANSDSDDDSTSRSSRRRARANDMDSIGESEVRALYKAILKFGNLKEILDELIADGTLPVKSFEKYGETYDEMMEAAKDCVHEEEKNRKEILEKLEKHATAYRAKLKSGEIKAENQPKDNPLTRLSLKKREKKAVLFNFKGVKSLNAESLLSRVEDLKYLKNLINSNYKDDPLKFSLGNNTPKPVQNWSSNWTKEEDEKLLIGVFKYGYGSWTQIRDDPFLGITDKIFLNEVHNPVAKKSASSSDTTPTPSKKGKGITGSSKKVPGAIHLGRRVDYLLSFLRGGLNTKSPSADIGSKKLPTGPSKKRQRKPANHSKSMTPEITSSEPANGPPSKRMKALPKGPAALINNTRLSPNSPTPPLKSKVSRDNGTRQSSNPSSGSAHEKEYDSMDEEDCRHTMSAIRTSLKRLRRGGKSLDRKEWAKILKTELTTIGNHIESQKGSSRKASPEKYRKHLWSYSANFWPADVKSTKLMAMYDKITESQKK

[3] = system: Schistosoma mansoni; assay: High throughput screening of compounds against Schistosoma mansoni motility; assay type: functional; parameters: dose or concentration left out as unconfirmed
[4] = target: Tryptophan--tRNA ligase (Mycobacterium tuberculosis (strain ATCC 25618 / H37Rv), UniProt P9WFT3); assay: Biochemical assay for Mt-TrpRS; assay type: functional
Chain of Tryptophan--tRNA ligase (P9WFT3 whole entry): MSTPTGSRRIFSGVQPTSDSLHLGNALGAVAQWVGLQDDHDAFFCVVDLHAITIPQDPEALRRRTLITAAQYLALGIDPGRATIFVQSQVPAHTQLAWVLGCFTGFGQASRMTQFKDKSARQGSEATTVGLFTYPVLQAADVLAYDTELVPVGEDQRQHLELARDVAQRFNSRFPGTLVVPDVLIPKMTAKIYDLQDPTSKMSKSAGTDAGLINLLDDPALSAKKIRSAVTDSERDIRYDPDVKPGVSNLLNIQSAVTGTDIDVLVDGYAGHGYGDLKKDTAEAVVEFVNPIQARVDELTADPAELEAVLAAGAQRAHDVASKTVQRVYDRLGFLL

[5] = microbe, parasite or virus in culture; conditions: Mycobacterium tuberculosis, 96 h, read-out: pIC50 (converted)
[6] = microbe, parasite or virus in culture; conditions: Mycobacterium tuberculosis, 72 h, read-out: pIC50 (converted)
[7] = system: Wolbachia pipientis; assay: Anti-Wolbachia Cell-Based Screen; assay type: functional
[8] = target: ClpP1P2 (Mycobacterium tuberculosis (strain ATCC 25618 / H37Rv), UniProt P9WPC3+P9WPC5); assay: in vitro assay to detect presence of AMC directly proportional to the activity of ClpP1P2. GHDDI collaboration.; assay type: functional
Chain of ClpP1P2 (P9WPC5 whole entry): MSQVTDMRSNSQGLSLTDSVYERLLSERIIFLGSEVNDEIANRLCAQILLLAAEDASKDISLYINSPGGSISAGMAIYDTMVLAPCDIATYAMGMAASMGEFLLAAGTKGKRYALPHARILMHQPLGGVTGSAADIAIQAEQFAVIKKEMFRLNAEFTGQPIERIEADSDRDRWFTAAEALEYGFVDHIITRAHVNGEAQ
Chain of ClpP1P2 (P9WPC3 whole entry): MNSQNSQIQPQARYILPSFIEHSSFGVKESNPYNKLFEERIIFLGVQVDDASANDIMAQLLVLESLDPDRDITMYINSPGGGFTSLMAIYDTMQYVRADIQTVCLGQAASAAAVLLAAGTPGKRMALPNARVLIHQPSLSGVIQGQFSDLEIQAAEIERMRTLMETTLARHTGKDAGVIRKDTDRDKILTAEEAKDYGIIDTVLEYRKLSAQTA

[9] = system: Plasmodium falciparum; assay: Calibr Malaria Delayed Death Assay SOP; assay type: functional, organism-based
[10] = target: T2, Histidine--tRNA ligase (Leishmania infantum, UniProt A4I591); assay: Leishmania infantum Histidine tRNA synthetase (LdHisRS); assay type: functional
T2 sequence (A4I591 whole entry): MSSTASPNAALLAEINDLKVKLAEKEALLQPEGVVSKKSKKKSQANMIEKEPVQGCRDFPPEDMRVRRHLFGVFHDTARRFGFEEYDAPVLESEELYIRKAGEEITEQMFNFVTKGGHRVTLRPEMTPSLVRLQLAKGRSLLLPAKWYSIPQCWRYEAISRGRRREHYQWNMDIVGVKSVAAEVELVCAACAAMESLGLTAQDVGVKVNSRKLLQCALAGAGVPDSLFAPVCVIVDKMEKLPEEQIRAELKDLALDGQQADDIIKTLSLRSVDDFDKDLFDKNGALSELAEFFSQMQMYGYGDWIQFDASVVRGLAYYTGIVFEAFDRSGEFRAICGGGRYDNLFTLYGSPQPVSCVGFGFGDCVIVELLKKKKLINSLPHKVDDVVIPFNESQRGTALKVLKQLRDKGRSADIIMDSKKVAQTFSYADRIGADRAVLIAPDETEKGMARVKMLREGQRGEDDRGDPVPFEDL

[11] = target: T3, Coenzyme A biosynthesis bifunctional protein CoaBC (Mycobacterium tuberculosis (strain ATCC 25618 / H37Rv), UniProt P9WNZ1); assay: Biomol Green assay for MtCoaBC inhibitor, OD650 read; assay type: functional
T3 sequence (P9WNZ1 whole entry): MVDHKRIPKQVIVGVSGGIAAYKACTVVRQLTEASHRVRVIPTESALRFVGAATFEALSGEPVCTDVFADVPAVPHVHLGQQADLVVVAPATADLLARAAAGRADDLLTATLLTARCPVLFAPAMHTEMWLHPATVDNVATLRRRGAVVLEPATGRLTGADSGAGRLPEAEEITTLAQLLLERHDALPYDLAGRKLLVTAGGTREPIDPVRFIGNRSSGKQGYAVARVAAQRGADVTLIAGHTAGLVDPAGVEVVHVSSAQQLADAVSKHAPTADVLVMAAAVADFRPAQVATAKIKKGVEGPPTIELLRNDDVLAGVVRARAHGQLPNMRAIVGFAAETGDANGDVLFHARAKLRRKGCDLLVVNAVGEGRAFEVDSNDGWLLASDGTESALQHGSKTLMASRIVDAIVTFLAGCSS

[12] = target: Sialic acid-binding Ig-like lectin 9 (Homo sapiens, UniProt Q9Y336); assay: Hs-Siglec9 ALPHAscreen SOP 20170721
Chain of Sialic acid-binding Ig-like lectin 9 (Q9Y336 whole entry): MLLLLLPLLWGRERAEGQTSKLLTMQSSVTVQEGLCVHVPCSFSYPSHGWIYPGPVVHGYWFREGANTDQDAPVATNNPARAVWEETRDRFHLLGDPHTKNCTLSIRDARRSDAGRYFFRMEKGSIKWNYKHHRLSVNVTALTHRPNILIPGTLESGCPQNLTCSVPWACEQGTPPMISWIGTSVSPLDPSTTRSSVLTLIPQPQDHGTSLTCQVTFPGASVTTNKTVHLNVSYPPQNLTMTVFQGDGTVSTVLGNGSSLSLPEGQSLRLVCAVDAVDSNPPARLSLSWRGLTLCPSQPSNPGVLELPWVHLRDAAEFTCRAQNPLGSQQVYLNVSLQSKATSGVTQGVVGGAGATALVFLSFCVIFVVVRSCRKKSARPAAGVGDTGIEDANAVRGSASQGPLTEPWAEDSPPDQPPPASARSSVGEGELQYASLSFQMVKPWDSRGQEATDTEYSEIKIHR

Row | SMILES | IC50 [2] | Percent Effect [3] [%] | further results
1 | Cc1ccc(N2CCCC3(COCCN(c4nccs4)C3)C2)nn1 (configuration not stated) | – | – | IC50 [1]: > 100 µM
2 | CSCCC(=O)N1CCCC1c1ccsc1 (configuration not stated) | > 29.5 µM | -17.9 | IC50 [4]: > 195 µM
3 | COc1ncccc1C(=O)Nc1nc2c(s1)CN(S(=O)(=O)C1CC1)CC2 | > 29.5 µM | -71.23 | –
4 | COc1ccc(C[C@H]2CN(c3nnc(C)s3)CC[C@@H]2OC)cc1.O=C(O)C(F)(F)F | > 29.5 µM | – | IC50 [5]: 24.7 µM; IC50 [6]: > 50.1 µM; pIC50 [7]: 5.531; IC50 ([7]; Wolbachia pipientis): 3.58 µM
5 | O=C(Cn1cc(-c2ccccc2)ncc1=O)Nc1ccncc1 | > 29.5 µM | – | IC50 [8]: > 100 µM
6 | Cc1noc([C@@H]2CCCN2C(=O)C2CCN(C(=O)C3CCC3)CC2)n1 | > 29.5 µM | 8.394 | –
7 | Cc1cc(NC(=O)NCCc2ccsc2)n(C)n1 | > 29.5 µM | 10.29 | IC50 [4]: > 195 µM
8 | CSCC(CCO)NC(=O)Nc1cc(Br)ccc1C (configuration not stated) | > 29.5 µM | -20.66 | –
9 | Cc1cccc(NC(=O)Cn2ncc(SCC(N)=O)c(Cl)c2=O)c1C | > 29.5 µM | 40.97 | –
10 | CCCN(CC(=O)NC)C(=O)c1ccc(-c2ccsc2)nc1C | > 29.5 µM | -8.65 | –
11 | O=C(NCC(O)c1ccccc1Cl)c1cccc(-n2cnnn2)c1 (configuration not stated) | > 29.5 µM | -46.05 | –
12 | CCc1cnc(CN(C)C2CCN(CCc3ccccn3)C2)o1 (configuration not stated) | > 29.5 µM | -35.57 | –
13 | O=C(Cn1cc(-c2ccccc2)ncc1=O)Nc1nnc[nH]1 | > 29.5 µM | – | IC50 [8]: > 100 µM
14 | COc1ccc(CNC(=O)C2(C#N)CCCC2)cc1 | > 29.5 µM | -106.9 | IC50 [4]: > 195 µM
15 | CCn1ccnc1-c1nc2cc(S(=O)(=O)N3CCCC3)ccc2n1C | > 29.5 µM | -59.51 | –
16 | O=C(CN1CCc2ccccc21)Nc1ccc(OC(F)F)cc1 | > 29.5 µM | 42 | IC50 [4]: > 195 µM
17 | CN(C)C(C)(C)CNC(=O)C(C)(C)c1ccccc1F | > 29.5 µM | -62.05 | –
18 | OCC1CCCCN1c1ccc(-c2nc(-c3ccccc3F)no2)cn1 (configuration not stated) | > 29.5 µM | – | pIC50 [9]: 7.272 and 6.795

Row | SMILES | IC50 [2] | Percent Effect [3] [%] | further results
19 | CC(=O)NCCc1ccc(S(=O)(=O)N(CC(C)C)C(C)C)s1 | > 29.5 µM | 41.16 | –
20 | Nc1ncc2c(n1)CN(C1CCCC1)C2=O | > 29.5 µM | – | IC50 [5]: 20.4 µM; IC50 [6]: 16.8 µM
21 | CC(C)NC(=O)c1nnn(-c2cccc(C(F)(F)F)c2)c1C1CC1 | > 29.5 µM | -32.68 | –
22 | CC(c1cccnc1)N(C)Cc1csc(-c2ccccn2)n1 (configuration not stated) | > 29.5 µM | -97.18 | –
23 | CC(NC(=O)CCCOc1ccccc1Cl)c1ccncc1 (configuration not stated) | > 29.5 µM | -74.47 | –
24 | CCOc1ncccc1NC(=O)c1cc2c(s1)CCC2 | > 29.5 µM | -62.61 | –
25 | Cc1ccccc1CC(C)NCc1c(C)nn(C)c1N1CCOCC1.Cl (configuration not stated) | > 29.5 µM | 7.535 | –
26 | COC(=O)c1ccc2ccn(CC3CCCO3)c(=O)c2c1 (configuration not stated) | > 29.5 µM | -62.88 | –
27 | O=C(NS(=O)(=O)c1ccccc1Cl)c1cccc2c1OCCO2 | > 29.5 µM | -35.61 | –
28 | Cc1cnc(CNc2c(F)cccc2-n2cccn2)o1 | > 29.5 µM | -41.52 | –
29 | COc1ccc(C)cc1S(=O)(=O)NCC(c1cccn1C)N(C)C (configuration not stated) | > 29.5 µM | -44.63 | –
30 | Cc1cc(CN(C)C(=O)NC(C)c2nncn2C)no1 (configuration not stated) | > 29.5 µM | 0.6145 | –
31 | Cc1ccc(-c2nc(CNC3CCc4ncnn4C3)co2)c(C)c1 (configuration not stated) | > 29.5 µM | – | –
32 | CC(CNC(=O)c1ccc(Cl)cc1I)N1CCCC1 (configuration not stated) | > 29.5 µM | – | –
33 | O=C1CC(c2ccco2)c2sc(C(=O)O)c(-c3ccccc3)c2N1 (configuration not stated) | 20.8 µM and 21.6 µM | – | IC50 [8]: > 100 µM; IC50 [10]: 17.3 µM and 12.6 µM; IC50 [11]: > 30.2 µM; IC50 [12]: > 30.2 µM
34 | CC(C)c1nc(C2CCCN2Cc2ccccc2C#N)no1 (configuration not stated) | > 29.5 µM | – | –
35 | CN(C)CC1(O)CCN(S(=O)(=O)c2ccc(F)cc2)C1 (configuration not stated) | > 29.5 µM | – | –
36 | NCC1(c2cccc(C(F)(F)F)c2)CCOCC1 | > 29.5 µM | – | –
